# Literature values in PubChem BioAssay AID1259410 (Chemical Carcinogenesis Research Information System (CCRIS), 2018).
# System: rodent tumor promotion studies, tumor incidence
# Test: CCRIS tumor promotion studies
# [1] = Carcinogen: 7,12-DIMETHYLBENZ(A)ANTHRACENE, Doses [Carcinogen]: TOP, Route [Carcinogen]: DERMAL, Route [Promoter]: DERMAL, Species: MOUSE, Strain/Sex: FEMALE
structure (smiles),measurement,setting,value
S=C=NCCc1ccccc1,outcome,"Carcinogen: DIETHYLNITROSAMINE, 55-18-5, N-BUTYL-N-(4-HYDROXYBUTYL)NITROSAMINE, 3817-11-6, Carcinogen: DIETHYLNITROSAMINE, 55-18-5, N-BUTYL-N-(4-HYDROXYBUTYL)NITROSAMINE, 3817-11-6, Doses [Carcinogen]: 200 MG/KG DEN ONCE THEN 0.05% BBN IN DRINKING WATER FOR 4 WK, Doses [Promoter]: 0, 0.1% IN DIET FOR 32 WKS BEGINNING 3 D POST CARCINOGEN TREATMENT (STUDY DURATION:36 WK), Route [Carcinogen]: INTRAPERITONEAL, ORAL, Route [Promoter]: ORAL, Species: RAT, Strain/Sex: F344/MALE",urinary bladder: carcinoma
CC(=O)Nc1ccc2c(c1)C(O)c1ccccc1-2 (stereo unspecified),outcome,"Carcinogen: DIETHYLNITROSAMINE, 55-18-5, Doses [Carcinogen]: 200 MG/KG BW IN 0.9% SALINE ONCE, Doses [Promoter]: 0, 0.1 MMOL/KG BW IN POLYETHYLENE GLYCOL FOR 5 D BEGINNING 1 WK POST CARCINOGEN DOSE, 70% HEPATECTOMY PERFORMED 3 D AFTE, Route [Carcinogen]: INTRAPERITONEAL, Route [Promoter]: GAVAGE, Species: RAT, Strain/Sex: SPRAGUE-DAWLEY/MALE",liver: hepatocellular carcinoma
Nc1ncn[nH]1,outcome,"Carcinogen: N-BIS(2-HYDROXYPROPYL)NITROSAMINE, Doses [Carcinogen]: 70 MG/100 G BW 1/WK FOR 4 WK, Doses [Promoter]: 2000 PPM IN DIET FOR 12 WK BEGINNING 1 WK AFTER INITIATION, Route [Carcinogen]: SUBCUTANEOUS, Route [Promoter]: ORAL, Species: RAT, Strain/Sex: WISTAR/MALE","thyroid gland: adenoma, carcinoma"
O=[N+]([O-])c1ccc(F)c([N+](=O)[O-])c1,outcome,"Carcinogen: 7,12-DIMETHYLBENZ[A]ANTHRACENE, 57-97-6, Doses [Carcinogen]: 2.5 UG IN 200 µL ACETONE ONCE, Doses [Promoter]: 0, 0.1, 0.2% IN ACETONE/OLIVE OIL (4:1) 2/WK FOR 52 WK BEGINNING 2 WK POST CARCINOGEN DOSE (STUDY DURATION: 54 WK), Doses [Promoter]: 0, 0.1, 0.2% IN ACETONE/OLIVE OIL (4:1) 2/WK FOR 52 WK BEGINNING 2 WK POST CARCINOGEN DOSE (STUDY DURATION: 54 WK), Route [Carcinogen]: DERMAL, Route [Promoter]: DERMAL, Species: MOUSE, Strain/Sex: SENCAR/FEMALE",skin: tumor
same,outcome,"Carcinogen: 7,12-DIMETHYLBENZ[A]ANTHRACENE, 57-97-6, Doses [Carcinogen]: 100 NMOL ONCE, Doses [Promoter]: 0, 0.1, 0.2% 2/WK FOR 27 WK BEGINNING 2 WK POST CARCINOGEN DOSE (STUDY DURATION: 59 WK), Doses [Promoter]: 0, 0.1, 0.2% 2/WK FOR 27 WK BEGINNING 2 WK POST CARCINOGEN DOSE (STUDY DURATION: 59 WK), Route [Carcinogen]: DERMAL, Route [Promoter]: DERMAL, Species: MOUSE, Strain/Sex: SENCAR/FEMALE",skin: tumor
O=c1c(O)c(-c2ccc(O)c(O)c2)oc2cc(O)cc(O)c12,outcome,"Carcinogen: N-ETHYL-N'-NITRO-N-NITROSOGUANIDINE, 4245-77-6, Doses [Carcinogen]: 0.01% IN DRINKING WATER FOR 4 WK PRIOR TO PROMOTER DOSES, Doses [Promoter]: 2% IN DIET FOR 16 WK (STUDY DURATION: 20 WK), Route [Carcinogen]: ORAL, Route [Promoter]: ORAL, Species: MOUSE, Strain/Sex: C57BL6/MALE",duodenum: tumor
COc1c2occc2cc2ccc(=O)oc12,outcome,"Carcinogen: 4-(Methylnitrosamino)-1-(3-pyridyl)-1-butanone (NNK), 64091-91-4, Doses [Carcinogen]: Once, 2 mg/0.1 ml saline/mouse on first day, study duration 32 wks, Doses [Carcinogen]: Once, 2 mg/0.1 ml saline/mouse on first day, study duration 32 wks, Doses [Promoter]: 100 ppm in diet from wks 2-16, study duration 32 wks, Route [Carcinogen]: Intraperitoneal, Route [Promoter]: Oral, Species: Mouse, Strain/Sex: A/J/Female","lung: adenoma (2.15 vs 1.54, not significant)"
same,outcome,"Carcinogen: 4-(Methylnitrosamino)-1-(3-pyridyl)-1-butanone (NNK), 64091-91-4, Doses [Carcinogen]: Once, 2 mg/0.1 ml saline/mouse on first day, study duration 32 wks, Doses [Carcinogen]: Once, 2 mg/0.1 ml saline/mouse on first day, study duration 32 wks, Doses [Promoter]: 100 ppm in diet from wks16-32, study duration 32 wks, Route [Carcinogen]: Intraperitoneal, Route [Promoter]: Oral, Species: Mouse, Strain/Sex: A/J/Female","lung: adenoma and adenocarcinoma (7.31 vs 6.78, not significant)"
CCCCCCCC/C=C\CCCCCCCC(=O)OC1CC2CCC1(C)C2(C)C (stereo unspecified),outcome,[1],integumentary system (skin)
Cc1cc(C)cc(O)c1,outcome,[1],integumentary system (skin)
CC(C)=CCC/C(C)=C/CC/C(C)=C/CC/C=C(\C)CC/C=C(\C)CCC=C(C)C,outcome,"Carcinogen: 7,12-DIMETHYLBENZ(A)ANTHRACENE, Doses [Carcinogen]: TOP, Route [Carcinogen]: DERMAL, Route [Promoter]: DERMAL, Species: MOUSE, Strain/Sex: MALE",integumentary system (skin)
O=P(O)(O)OC1C(OP(=O)(O)O)C(OP(=O)(O)O)C(OP(=O)(O)O)C(OP(=O)(O)O)C1OP(=O)(O)O (stereo unspecified),outcome,"Carcinogen: N-BUTYL-N-(4-HYDROXYBUTYL)NITROSAMINE, 3817-11-6, Doses [Carcinogen]: 0.05% IN DRINKING WATER FOR 4 WK, Doses [Promoter]: 0, 2% IN DIET BEGINNING POST CARCINOGEN TREATMENT AND CONTINUING FOR 32 WK (STUDY DURATION: 36 WK), Route [Carcinogen]: ORAL, Route [Promoter]: ORAL, Species: RAT, Strain/Sex: F344/MALE","urinary bladder: papilloma, carcinoma"
COc1ccc2c(c1)c(CC(=O)O)c(C)n2C(=O)c1ccc(Cl)cc1,outcome,"Carcinogen: N-(4-(5-NITRO-2-FURYL)-2-THIAZOLYL)FORMAMIDE, 24554-26-5, Doses [Carcinogen]: 0.2% IN DIET FOR 7 WK, Doses [Promoter]: 0, 1 MG/KG/D IN DRINKING WATER FOR DURATION OF STUDY (STUDY DURATION: 92 WK), Route [Carcinogen]: ORAL, Route [Promoter]: ORAL, Species: RAT, Strain/Sex: SPRAGUE-DAWLEY/FEMALE",urinary tract: tumor
Nc1ccc(Cc2ccc(N)cc2)cc1,outcome,"Carcinogen: 2,2'-DIHYDROXY-N-NITROSODIPROPYLAMINE, 53609-64-6, Doses [Carcinogen]: 280 MG/100 G IN 0.5 ML SALINE ONCE, Doses [Promoter]: 0, 1000 PPM IN DIET FOR 19 WK (STUDY DURATION: 19 WK), Route [Carcinogen]: INTRAPERITONEAL, Route [Promoter]: ORAL, Species: RAT, Strain/Sex: WISTAR/MALE",thyroid: tumor
same,outcome,"Carcinogen: N-BIS(2-HYDROXYPROPYL)NITROSAMINE, 53609-64-6, N-ETHYL-N-HYDROXYETHYLNITROSAMINE, 13147-25-6, 3,2'-DIMETHYL-4-AMINOB, Carcinogen: N-BIS(2-HYDROXYPROPYL)NITROSAMINE, 53609-64-6, N-ETHYL-N-HYDROXYETHYLNITROSAMINE, 13147-25-6, 3,2'-DIMETHYL-4-AMINOB, Doses [Carcinogen]: 1000 MG/KG IP IN SALINE ON DAY 1 AND 4, 1500 MG/KG IG IN DISTILLED WATER ON DAY 8 AND 11, 75 MG/KG SC IN CORN OIL ON D, Doses [Carcinogen]: 1000 MG/KG IP IN SALINE ON DAY 1 AND 4, 1500 MG/KG IG IN DISTILLED WATER ON DAY 8 AND 11, 75 MG/KG SC IN CORN OIL ON D, Doses [Promoter]: 0, 0.1% IN DIET BEGINNING 1 WK POST LAST CARCINOGEN DOSE AND CONTINUING FOR 12 WK (STUDY DURATION: 16 WK), Route [Carcinogen]: INTRAPERITONEAL, GAVAGE, SUBCUTANEOUS, Route [Carcinogen]: INTRAPERITONEAL, GAVAGE, SUBCUTANEOUS, Route [Promoter]: ORAL, Species: RAT, Strain/Sex: F344/MALE","thyroid: adenoma, adenocarcinoma"
COc1cc(NS(=O)(=O)c2ccc(N)cc2)nc(OC)n1,outcome,"Carcinogen: Kojic acid, 501-30-4, Doses [Carcinogen]: 0.02, 0.2, 2% in diet for 8 wk before administration of promoter, Doses [Carcinogen]: 0.02, 0.2, 2% in diet for 8 wk before administration of promoter, Doses [Promoter]: 0.1% in drinking water from 8 wk to 31 wk of experiment, study duration 44 wk, Route [Carcinogen]: Oral, Route [Promoter]: Oral, Species: Rat, Strain/Sex: F344//Male (20/experimental group (10 killed at 31 wk & 10 killed at 44 wk); 15/controls)",thyroid: negative for tumors
same,outcome,"Carcinogen: N-bis(2-hydroxypropyl)nitrosamine, 53609-64-6, Doses [Carcinogen]: 700 mg/kg, 4 injections administered over 8 wk before promoter, Doses [Promoter]: 0.1% in drinking water from 8 wk to 31 wk of experiment, study duration 44 wk, Route [Carcinogen]: Subcutaneous, Route [Promoter]: Oral, Species: Rat, Strain/Sex: F344//Male (20/experimental group (10 killed at 31 wk & 10 killed at 44 wk); 15/controls)",thyroid: adenoma and carcinoma at both 31 and 44 wk
O=C(OOC(=O)c1ccccc1)c1ccccc1,outcome,[1],integumentary system (skin)
same,outcome,"Carcinogen: 7,12-DIMETHYLBENZ[A]ANTHRACENE, 57-97-6, Doses [Carcinogen]: 0.1% IN MINERAL OIL APPLIED TO BUCCAL POUCHES 3/WK FOR 10 WK, Doses [Promoter]: 0, 40% IN ACETONE APPLIED TO BUCCAL POUCHES 3/WK FOR 6 WK BEGINNING 6 WK POST CARCINOGEN TREATMENT (STUDY DURATION: 25 W, Route [Carcinogen]: DERMAL, Route [Promoter]: DERMAL, Species: HAMSTER, Strain/Sex: SYRIAN/MALE, FEMALE","buccal pouch: tumor, carcinoma"
same,outcome,"Carcinogen: 7,12-DIMETHYLBENZ[A]ANTHRACENE, 57-97-6, Doses [Carcinogen]: 20 NMOL IN ACETONE ONCE, Doses [Promoter]: 0, 0.2 ML OF 100 MG/ML SOLUTION IN ACETONE 2/WK FOR 51 WK (STUDY DURATION: 52 WK), Route [Carcinogen]: DERMAL, Route [Promoter]: DERMAL, Species: MOUSE, Strain/Sex: SENCAR/FEMALE",skin: squamous cell carcinoma
same,outcome,"Carcinogen: N-METHYL-N'-NITRO-N-NITROSOGUANIDINE, 70-25-7, Doses [Carcinogen]: 4 UMOL IN 200 µL ACETONE ONCE, Doses [Promoter]: 0, 10, 20 MG IN 200 µL ACETONE 2/WK FOR 52 WK BEGINNING 2 WK POST CARCINOGEN DOSE (STUDY DURATION: 52 WK), Doses [Promoter]: 0, 10, 20 MG IN 200 µL ACETONE 2/WK FOR 52 WK BEGINNING 2 WK POST CARCINOGEN DOSE (STUDY DURATION: 52 WK), Route [Carcinogen]: DERMAL, Route [Promoter]: DERMAL, Species: MOUSE, Strain/Sex: C3H/FEMALE",skin: tumor
